This is an account of results in patent US20130065868A1, “ANXIOYTIC MARCGRAVIACEAE COMPOSITIONS CONTAINING BETULINIC ACID, BETULINIC ACID DERIVATIVES, AND METHODS” (UNIVERSITY OF OTTAWA, priority 2002, published 2013).

The assay has as its target neuropeptide Y2 (Homo sapiens, UniProt P49146). Put plainly: MDS Panlabs screen: neuropeptide Y2. Format: binding. To be noted: Peptides. On the procedure: Tests were conducted by MDS Panlabs to determine whether any of the classical neurotransmitter systems or the peptidergic systems thought to play a role in anxiety are affected by betulinic acid.

Chain of neuropeptide Y2 (P49146 whole entry): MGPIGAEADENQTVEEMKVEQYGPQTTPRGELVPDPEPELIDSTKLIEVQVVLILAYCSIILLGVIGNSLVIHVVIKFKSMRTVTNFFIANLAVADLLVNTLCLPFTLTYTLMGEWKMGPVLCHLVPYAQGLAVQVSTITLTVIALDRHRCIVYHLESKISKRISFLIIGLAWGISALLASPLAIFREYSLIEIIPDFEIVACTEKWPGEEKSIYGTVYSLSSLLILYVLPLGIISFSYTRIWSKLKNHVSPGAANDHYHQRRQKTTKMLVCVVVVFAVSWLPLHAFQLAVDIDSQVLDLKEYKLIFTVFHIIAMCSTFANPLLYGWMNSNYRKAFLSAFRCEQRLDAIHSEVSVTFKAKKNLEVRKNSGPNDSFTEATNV

Regarding `C=C(C)[C@@H]1CC[C@]2(C(=O)O)CC[C@]3(C)C(CC[C@@H]4[C@@]5(C)CC[C@H](O)C(C)(C)[C@@H]5CC[C@]43C)[C@@H]12` (stereo partly shown) [betulinic acid, Betulinic acid], the “affected by betulinic acid” value is listed as “none of the following neurotransmitters or proteins were affected”.
